Source: paper PMC4172929, “Patched Targeting Peptides for Imaging and Treatment of Hedgehog Positive Breast Tumors” (BioMed Research International, 2014)

Tested on: 13762 breast carcinoma xenografts
Assay: Paclitaxel treatment of tumor xenografts (PTCH immunohistochemistry, tumor volume)
Assay type: in vivo, rat
Conditions: rats, 20 mg/kg paclitaxel
Method: All animal work was carried out in the Small Animal Imaging Facility (SAIF) at the University of Texas M.D. Anderson Cancer Center under an approved Institutional Animal Care and Use Committee (IACUC) protocol. Female Fischer 344 rats (150 ± 25 g, n = 6) (Harlan Sprague-Dawley, Indianapolis, IN) were inoculated subcutaneously with 0.1 mL of a 13762 breast carcinoma cell suspension (10^5 cells/rat of a breast tumor cell line specific to Fischer rats) into the hind legs using 25-gauge needles. Studies were performed 12–14 days after inoculation when tumors reached approximately 1 cm in diameter. For treatment studies, rats were injected with 20 mg/kg paclitaxel and reimaged 7 days later. After the posttreatment scan, tumors were removed and formalin sections were made. Control tumors were taken from untreated […] 13 days after inoculation. Sections were stained with an anti-patched antibody (Santa Cruz) using a peroxide-based immunohistochemical detection kit (Dako) according to the manufacturer's instructions.

CC(=O)O[C@H]1C(=O)[C@@]2(C)[C@H]([C@H](OC(=O)c3ccccc3)[C@]3(O)C[C@H](OC(=O)[C@H](O)[C@@H](NC(=O)c4ccccc4)c4ccccc4)C(C)=C1C3(C)C)[C@]1(OC(C)=O)CO[C@@H]1C[C@@H]2O [paclitaxel]
tumor volume after treatment: decrease
PTCH protein expression in the residual tumor (seven days after treatment, immunohistochemistry): increase
